Consider eleven compounds from ChEMBL document CHEMBL1201862, “PubChem BioAssay data set” (2004).

A word on the IC50: it is the concentration that gives 50% inhibition. Broadly, the EC50 is the concentration at which the effect is half-maximal. By AC50 is commonly meant the concentration at which the activity in the assay is half-maximal.

In test [1] the target is Eukaryotic translation initiation factor 4E (Mus musculus, UniProt P63073). Briefly: blockers of eIF4G binding by eIF4E – biochemical, TR-FRET, dose response (AID 855).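 Also: potency for disrupting eIF4E binding to eIF4GI seen as loss of FRET.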 The format is functional. For orientation: In TR-FRET formats the signal depends on donor and acceptor labels being close together.
Another test deals with Perilipin-1/ABHD5 (Homo sapiens, UniProt O60240+Q8WTS1). Put plainly: Luminescence-based biochemical high throughput dose response assay for inhibitors of the interaction of the lipase co-activator protein, abhydrolase domain containing 5 (ABHD5) with perilipin-1 (PLIN1) (2K validation set). [Related pubchem assays (depositor defined):AID493027, AID493057].
Sequence of Perilipin-1/ABHD5 (Q8WTS1 whole entry, the tested form may be a part): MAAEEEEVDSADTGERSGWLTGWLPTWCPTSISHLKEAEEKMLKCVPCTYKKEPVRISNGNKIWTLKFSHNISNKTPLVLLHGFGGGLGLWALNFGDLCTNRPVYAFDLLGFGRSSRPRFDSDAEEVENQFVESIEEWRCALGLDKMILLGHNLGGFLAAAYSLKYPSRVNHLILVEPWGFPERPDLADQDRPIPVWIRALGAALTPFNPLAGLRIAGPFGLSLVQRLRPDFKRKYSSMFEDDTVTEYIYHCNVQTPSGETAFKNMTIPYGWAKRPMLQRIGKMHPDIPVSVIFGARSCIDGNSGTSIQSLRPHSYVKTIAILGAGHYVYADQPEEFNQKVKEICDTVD
Sequence of Perilipin-1/ABHD5 (O60240 whole entry, the tested form may be a part): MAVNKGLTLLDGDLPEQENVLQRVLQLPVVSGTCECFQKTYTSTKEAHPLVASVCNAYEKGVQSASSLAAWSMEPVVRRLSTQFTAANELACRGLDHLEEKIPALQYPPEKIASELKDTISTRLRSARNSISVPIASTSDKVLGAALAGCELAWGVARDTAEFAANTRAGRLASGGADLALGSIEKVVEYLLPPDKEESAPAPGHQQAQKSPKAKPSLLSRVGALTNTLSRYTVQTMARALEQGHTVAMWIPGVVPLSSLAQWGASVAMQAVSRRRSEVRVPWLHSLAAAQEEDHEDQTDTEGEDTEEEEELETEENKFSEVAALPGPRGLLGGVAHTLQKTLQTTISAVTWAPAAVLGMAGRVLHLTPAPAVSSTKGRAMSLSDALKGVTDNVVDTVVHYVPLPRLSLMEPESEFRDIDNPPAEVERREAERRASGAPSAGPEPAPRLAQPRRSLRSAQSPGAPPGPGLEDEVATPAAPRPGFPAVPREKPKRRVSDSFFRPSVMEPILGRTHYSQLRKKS
In test [2] the target is 1-acylglycerol-3-phosphate O-acyltransferase ABHD5/Perilipin-5 (Homo sapiens, UniProt Q00G26+Q8WTS1). Briefly: Luminescence-based biochemical high throughput dose response assay for inhibitors of the interaction of the lipase co-activator protein, abhydrolase domain containing 5 (ABHD5) with perilipin-5 (MLDP; PLIN5) (2K validation set). [Related pubchem assays (depositor defined):AID493035, AID493241].
Sequence of 1-acylglycerol-3-phosphate O-acyltransferase ABHD5/Perilipin-5 (Q00G26 whole entry, the tested form may be a part): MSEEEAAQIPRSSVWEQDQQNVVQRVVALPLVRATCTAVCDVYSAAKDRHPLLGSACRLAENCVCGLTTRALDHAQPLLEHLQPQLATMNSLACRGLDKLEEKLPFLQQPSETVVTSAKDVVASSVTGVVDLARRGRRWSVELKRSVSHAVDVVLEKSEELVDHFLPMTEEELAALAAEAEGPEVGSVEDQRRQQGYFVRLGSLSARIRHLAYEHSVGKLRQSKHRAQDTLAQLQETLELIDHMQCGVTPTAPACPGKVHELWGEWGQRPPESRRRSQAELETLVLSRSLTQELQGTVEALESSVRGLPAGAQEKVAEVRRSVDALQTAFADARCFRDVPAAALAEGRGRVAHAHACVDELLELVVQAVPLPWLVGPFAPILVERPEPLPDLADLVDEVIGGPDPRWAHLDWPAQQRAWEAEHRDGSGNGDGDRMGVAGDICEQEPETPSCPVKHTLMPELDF
Sequence of 1-acylglycerol-3-phosphate O-acyltransferase ABHD5/Perilipin-5 (Q8WTS1 whole entry, the tested form may be a part): as the sequence (Q8WTS1 whole entry, the tested form may be a part) above

Test [3] addresses Alkaline phosphatase, placental type (Homo sapiens, UniProt P05187). Briefly: human placental alkaline phosphatase inhibition – biochemical, luminescence, confirmation (AID 1512). The test is classed as functional.
Test [4] concerns the target T1, Alkaline phosphatase, tissue-nonspecific isozyme (Homo sapiens, UniProt P05186).
T1 sequence (P05186 whole entry): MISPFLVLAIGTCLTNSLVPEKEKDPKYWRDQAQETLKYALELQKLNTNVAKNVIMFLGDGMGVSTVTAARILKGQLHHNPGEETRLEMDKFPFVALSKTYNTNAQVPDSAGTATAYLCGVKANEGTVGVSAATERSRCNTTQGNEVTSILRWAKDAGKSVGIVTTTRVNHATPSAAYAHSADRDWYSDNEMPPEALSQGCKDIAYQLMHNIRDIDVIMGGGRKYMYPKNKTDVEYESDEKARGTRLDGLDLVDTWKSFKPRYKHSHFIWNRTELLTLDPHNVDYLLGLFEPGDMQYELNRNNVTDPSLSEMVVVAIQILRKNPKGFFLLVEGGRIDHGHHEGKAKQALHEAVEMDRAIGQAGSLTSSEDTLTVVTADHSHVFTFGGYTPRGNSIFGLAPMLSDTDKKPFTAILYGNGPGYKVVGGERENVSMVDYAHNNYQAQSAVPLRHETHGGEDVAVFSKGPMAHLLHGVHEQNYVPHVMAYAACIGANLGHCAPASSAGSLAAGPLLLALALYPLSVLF
Put plainly: potency against alkaline phosphatase TNAP – biochemical, luminescent, dose response, SAR follow-up (AID 1056).

The target in test [5] is T2, Short transient receptor potential channel 4 (Mus musculus, UniProt Q9QUQ5).
T2 sequence (Q9QUQ5 whole entry): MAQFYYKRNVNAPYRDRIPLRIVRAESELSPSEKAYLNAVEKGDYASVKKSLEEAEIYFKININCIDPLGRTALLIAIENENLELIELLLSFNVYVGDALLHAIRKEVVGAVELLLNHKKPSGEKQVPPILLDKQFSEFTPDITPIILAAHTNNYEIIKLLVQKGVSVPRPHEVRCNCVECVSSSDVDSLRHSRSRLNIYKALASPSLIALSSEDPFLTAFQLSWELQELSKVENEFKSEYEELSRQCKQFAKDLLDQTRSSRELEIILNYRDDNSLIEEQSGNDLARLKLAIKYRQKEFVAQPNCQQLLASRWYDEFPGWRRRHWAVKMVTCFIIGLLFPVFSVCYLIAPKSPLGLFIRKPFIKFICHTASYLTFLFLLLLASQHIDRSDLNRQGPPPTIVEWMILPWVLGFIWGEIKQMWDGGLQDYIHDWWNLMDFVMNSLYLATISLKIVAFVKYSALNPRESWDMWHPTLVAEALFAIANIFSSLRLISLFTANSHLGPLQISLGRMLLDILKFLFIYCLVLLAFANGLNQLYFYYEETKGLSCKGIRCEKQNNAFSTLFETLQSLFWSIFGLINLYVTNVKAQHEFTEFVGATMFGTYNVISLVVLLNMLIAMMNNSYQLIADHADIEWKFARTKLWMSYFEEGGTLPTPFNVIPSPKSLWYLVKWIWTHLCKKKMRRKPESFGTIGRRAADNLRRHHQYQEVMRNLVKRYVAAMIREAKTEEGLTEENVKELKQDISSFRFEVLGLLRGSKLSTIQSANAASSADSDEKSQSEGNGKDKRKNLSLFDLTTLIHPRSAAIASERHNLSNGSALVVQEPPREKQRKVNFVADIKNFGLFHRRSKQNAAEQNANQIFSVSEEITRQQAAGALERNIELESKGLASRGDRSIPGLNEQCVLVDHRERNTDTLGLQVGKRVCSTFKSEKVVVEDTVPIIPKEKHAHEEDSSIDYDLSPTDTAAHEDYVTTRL
Briefly: block of DAMGO-driven TRPC4 calcium entry – cell-based, HEK293 TRPC4/mu-opioid, Fluo-4 calcium, dose response (AID 434942).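 Also: potency of inhibitors blocking the TRPC4 calcium response.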 The format is functional.

Test [6] concerns the target NACHT, LRR and PYD domains-containing protein 3 (Homo sapiens, UniProt Q96P20). Briefly: NALP3 inhibitors in yeast, dose response, luminescent (AID 488799). The test is classed as functional.
In another test the target is Nonstructural protein 1 (Influenza A virus, UniProt Q194T2). The test is classed as functional, Influenza A virus (A/California/07/2009(H1N1)).
Test [7] deals with T3, Voltage-gated N-type calcium channel alpha-1B subunit/Amyloid beta A4 precursor protein-binding family A member 1 (Homo sapiens, UniProt Q00975+Q02410). The format is protein assay.
T3 sequence (Q00975 whole entry): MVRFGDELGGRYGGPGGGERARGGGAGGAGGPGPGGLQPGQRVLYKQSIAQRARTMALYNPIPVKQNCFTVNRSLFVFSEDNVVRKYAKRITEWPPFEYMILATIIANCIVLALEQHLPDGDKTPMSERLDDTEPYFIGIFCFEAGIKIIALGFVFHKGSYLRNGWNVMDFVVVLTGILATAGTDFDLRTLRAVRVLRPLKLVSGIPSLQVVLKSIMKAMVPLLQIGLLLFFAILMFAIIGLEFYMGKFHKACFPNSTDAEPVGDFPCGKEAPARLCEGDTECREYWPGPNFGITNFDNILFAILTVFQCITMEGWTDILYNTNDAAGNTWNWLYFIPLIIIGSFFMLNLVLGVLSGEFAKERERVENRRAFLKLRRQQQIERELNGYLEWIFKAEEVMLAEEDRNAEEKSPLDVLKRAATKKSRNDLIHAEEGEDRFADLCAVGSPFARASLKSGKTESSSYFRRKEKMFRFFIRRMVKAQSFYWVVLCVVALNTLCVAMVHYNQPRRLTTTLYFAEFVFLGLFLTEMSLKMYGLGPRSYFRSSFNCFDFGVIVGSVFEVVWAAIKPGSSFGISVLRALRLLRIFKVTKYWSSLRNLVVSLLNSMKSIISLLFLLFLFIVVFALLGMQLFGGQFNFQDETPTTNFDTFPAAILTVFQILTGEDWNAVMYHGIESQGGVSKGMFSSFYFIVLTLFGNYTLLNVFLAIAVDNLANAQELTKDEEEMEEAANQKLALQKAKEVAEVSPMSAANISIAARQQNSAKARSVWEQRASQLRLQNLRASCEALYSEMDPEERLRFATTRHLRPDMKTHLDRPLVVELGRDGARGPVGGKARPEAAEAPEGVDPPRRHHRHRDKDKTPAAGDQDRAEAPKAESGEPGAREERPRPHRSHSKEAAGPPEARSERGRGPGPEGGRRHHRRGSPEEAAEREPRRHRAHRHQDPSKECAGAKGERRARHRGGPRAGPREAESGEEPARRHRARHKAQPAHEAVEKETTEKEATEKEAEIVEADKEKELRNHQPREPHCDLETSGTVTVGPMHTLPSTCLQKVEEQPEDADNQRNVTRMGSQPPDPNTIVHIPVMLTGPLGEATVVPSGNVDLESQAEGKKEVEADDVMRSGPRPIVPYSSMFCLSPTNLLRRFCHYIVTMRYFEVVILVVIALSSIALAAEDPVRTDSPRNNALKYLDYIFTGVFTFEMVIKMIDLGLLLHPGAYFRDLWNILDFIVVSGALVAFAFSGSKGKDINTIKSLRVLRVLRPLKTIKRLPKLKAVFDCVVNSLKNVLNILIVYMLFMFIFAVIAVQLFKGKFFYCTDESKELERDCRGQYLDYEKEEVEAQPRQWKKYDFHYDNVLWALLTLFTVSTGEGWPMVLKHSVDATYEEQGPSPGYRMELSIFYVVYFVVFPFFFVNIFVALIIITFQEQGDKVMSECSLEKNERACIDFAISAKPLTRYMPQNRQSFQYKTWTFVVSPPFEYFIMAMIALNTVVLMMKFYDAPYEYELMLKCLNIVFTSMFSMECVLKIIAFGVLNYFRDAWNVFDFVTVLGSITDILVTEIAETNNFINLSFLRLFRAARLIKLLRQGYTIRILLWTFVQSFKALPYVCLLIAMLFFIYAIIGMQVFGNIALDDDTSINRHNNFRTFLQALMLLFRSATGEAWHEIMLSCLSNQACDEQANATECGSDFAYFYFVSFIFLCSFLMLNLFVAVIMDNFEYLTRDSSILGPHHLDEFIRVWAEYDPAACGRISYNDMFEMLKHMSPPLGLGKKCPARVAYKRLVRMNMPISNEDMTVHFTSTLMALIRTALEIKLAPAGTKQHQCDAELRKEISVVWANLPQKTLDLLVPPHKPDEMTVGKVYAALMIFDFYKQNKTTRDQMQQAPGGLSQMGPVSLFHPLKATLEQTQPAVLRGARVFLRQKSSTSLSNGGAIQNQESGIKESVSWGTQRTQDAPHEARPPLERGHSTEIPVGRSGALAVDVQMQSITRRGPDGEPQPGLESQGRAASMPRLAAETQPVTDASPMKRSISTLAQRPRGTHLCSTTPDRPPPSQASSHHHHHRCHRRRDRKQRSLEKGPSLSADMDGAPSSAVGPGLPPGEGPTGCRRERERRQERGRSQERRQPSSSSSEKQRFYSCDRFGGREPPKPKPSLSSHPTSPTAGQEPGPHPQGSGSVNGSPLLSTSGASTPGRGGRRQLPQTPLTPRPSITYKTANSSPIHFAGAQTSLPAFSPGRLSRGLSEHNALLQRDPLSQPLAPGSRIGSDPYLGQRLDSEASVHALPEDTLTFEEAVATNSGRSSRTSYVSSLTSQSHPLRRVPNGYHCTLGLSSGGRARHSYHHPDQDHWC
T3 sequence (Q02410 whole entry): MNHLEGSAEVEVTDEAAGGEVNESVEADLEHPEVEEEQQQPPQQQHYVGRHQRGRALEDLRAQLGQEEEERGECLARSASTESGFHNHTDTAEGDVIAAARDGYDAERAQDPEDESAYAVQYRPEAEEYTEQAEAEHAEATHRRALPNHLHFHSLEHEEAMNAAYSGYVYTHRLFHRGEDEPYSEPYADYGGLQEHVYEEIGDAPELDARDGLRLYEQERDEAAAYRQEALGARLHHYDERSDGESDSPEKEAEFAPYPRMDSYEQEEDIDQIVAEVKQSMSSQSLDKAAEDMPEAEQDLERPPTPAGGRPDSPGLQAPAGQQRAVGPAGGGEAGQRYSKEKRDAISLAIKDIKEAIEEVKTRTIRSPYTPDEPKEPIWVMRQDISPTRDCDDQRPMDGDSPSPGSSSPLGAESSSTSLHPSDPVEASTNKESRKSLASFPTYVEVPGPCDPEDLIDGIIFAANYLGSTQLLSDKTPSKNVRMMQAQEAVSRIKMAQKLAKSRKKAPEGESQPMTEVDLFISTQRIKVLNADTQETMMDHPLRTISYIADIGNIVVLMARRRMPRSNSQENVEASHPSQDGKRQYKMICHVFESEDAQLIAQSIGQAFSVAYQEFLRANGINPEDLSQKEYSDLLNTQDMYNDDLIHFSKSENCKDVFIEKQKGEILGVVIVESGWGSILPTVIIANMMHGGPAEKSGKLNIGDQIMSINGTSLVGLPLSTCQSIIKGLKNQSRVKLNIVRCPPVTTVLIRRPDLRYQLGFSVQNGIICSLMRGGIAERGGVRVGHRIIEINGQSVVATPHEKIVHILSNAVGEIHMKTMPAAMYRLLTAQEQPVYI
Test [8] has as its target Induced myeloid leukemia cell differentiation protein Mcl-1 (Homo sapiens, UniProt Q07820). The format is functional.
In test [9] the target is T3, Voltage-gated N-type calcium channel alpha-1B subunit/Amyloid beta A4 precursor protein-binding family A member 1. The test is classed as protein assay. This is another data set of the same source.
Test [10] deals with T4, Tyrosine-protein phosphatase non-receptor type 7 (Homo sapiens, UniProt P35236).
T4 sequence (P35236 whole entry): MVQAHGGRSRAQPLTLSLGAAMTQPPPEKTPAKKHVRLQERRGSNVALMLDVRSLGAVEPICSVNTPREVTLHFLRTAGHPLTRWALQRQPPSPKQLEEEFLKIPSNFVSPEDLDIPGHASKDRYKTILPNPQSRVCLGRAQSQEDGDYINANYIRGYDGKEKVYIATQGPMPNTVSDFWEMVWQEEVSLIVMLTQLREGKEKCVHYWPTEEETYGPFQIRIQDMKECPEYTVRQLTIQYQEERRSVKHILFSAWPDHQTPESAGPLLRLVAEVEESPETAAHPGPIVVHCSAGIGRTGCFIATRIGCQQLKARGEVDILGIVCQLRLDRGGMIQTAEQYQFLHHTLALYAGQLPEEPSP
Put plainly: redox-active compounds inhibiting HePTP phosphatase – biochemical, fluorescence, mechanism study (AID 2068). The test is classed as functional.

Another test concerns HT-1080. Briefly: HT1080 cell viability loss – fluorescence readout (AID 620). The format is functional, cell-based. The settings on record: Homo sapiens.
The nature of test [11]: HEK-293T cell viability reduction – luminescence, B-cell screen hits, cytotoxicity control for BCR NF-kB inhibitor project, dose response (AID 489021).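 Also: HEK-293T cells carrying an NF-kB luciferase reporter; cells exposed to compound for about 14 hours before viability readout.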 The format is functional, cell-based.
For test [12], the target named is Luciferin 4-monooxygenase (Photinus pyralis, UniProt P08659). Briefly: Counter Screen for Luciferase-based Assay Positives. [Related pubchem assays: 620, 618, 411 ].
Test [13] relates to HEK293. Briefly: EBV LMP1 TES2 canonical NF-kB signalling blockers – cell-based, HEK293, luciferase, cherry-pick, dose response (AID 588343). The test is classed as functional. As to conditions: Homo sapiens.
Test [14] addresses Delta-type opioid receptor (Homo sapiens, UniProt P41143). Briefly: Counterscreen for agonists of heterodimerization of the mu 1 (OPRM1) and delta 1 (OPRD1) opioid receptors: Luminescence-based cell-based high throughput dose response assay to identify agonists of OPRD1 homodimerization. [Related pubchem assays (depositor defined):AID504326, AID504355, AID504692, AID504904, AID504905]. The test is classed as functional. In general terms: Counterscreens check selectivity or assay interference.

The target in another test is Mu-type opioid receptor (Homo sapiens, UniProt P35372). Briefly: Counterscreen for agonists of heterodimerization of the mu 1 (OPRM1) and delta 1 (OPRD1) opioid receptors: Luminescence-based cell-based high throughput dose response assay to identify agonists of OPRM1 homodimerization. The format is functional.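 Also: U2OS cells expressing OPRM1 and beta-arrestin as split beta-galactosidase partners.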
Test [15] addresses T5, Ubiquitin-conjugating enzyme E2 N (Homo sapiens, UniProt P61088).
T5 sequence (P61088 whole entry): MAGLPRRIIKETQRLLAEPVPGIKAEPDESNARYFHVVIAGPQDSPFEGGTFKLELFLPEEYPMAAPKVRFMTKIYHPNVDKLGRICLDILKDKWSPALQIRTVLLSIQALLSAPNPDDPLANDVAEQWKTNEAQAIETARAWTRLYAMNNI
The test is classed as functional.

Test [16] in a line: Fluorescence-based cell-based high throughput dose response assay for inhibitors of the interaction of nucleotide-binding oligomerization domain containing 2 (NOD2) and the receptor-interacting serine-threonine kinase 2 (RIPK2). The test is classed as functional. As to conditions: Homo sapiens.
In test [17] the target is 5-hydroxytryptamine receptor 5A (Homo sapiens, UniProt P47898). Put plainly: Counterscreen for agonists of OPRM1-OPRD1 heterodimerization: luminescence-based cell-based high throughput dose response assay to identify agonists of 5-hydroxytryptamine (serotonin) 5A receptor (HTR5A). [Related pubchem assays (depositor defined):AID504326, AID504355, AID504692, AID504904, AID504905]. The test is classed as functional.

Another test deals with T6, Bcl-2-related protein A1 (Mus musculus, UniProt Q07440).
T6 sequence (Q07440 whole entry): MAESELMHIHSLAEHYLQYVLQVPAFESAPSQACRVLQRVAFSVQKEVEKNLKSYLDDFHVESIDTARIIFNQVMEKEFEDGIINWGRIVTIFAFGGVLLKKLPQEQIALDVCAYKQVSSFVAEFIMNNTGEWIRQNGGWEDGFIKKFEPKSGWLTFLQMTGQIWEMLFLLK
The format is functional.

Test [18] has as its target T7, Type-1 angiotensin II receptor (Homo sapiens, UniProt P30556).
T7 sequence (P30556 whole entry): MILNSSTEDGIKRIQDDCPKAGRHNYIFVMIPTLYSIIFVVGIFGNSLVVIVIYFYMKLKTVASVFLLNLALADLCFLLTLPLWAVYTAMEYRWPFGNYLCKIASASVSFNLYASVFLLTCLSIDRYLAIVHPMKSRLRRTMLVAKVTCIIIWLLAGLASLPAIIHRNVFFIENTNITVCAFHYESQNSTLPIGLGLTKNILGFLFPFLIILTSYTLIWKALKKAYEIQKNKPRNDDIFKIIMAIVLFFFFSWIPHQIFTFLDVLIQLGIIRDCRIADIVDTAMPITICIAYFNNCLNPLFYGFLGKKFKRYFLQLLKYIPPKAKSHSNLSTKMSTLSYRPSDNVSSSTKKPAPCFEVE
Briefly: agonist activity at AGTR1 – cell-based, uHTS hits, selectivity assay for APJ receptor agonist project, dose response (AID 488865).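 Also: beta-arrestin recruitment to AT1 measured by enzyme fragment complementation luminescence.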 The format is functional.

The target in test [19] is T5, Ubiquitin-conjugating enzyme E2 N. The format is functional. This is another data set of the same source.
Test [20] deals with HEK293. Briefly: cells. As to conditions: Homo sapiens.
Test [21] has as its system HEK293. Briefly: cells. As to conditions: Homo sapiens. This is another data set of the same source.
For test [22], the target named is Glyceraldehyde-3-phosphate dehydrogenase (Homo sapiens, UniProt P04406).

The structures appear in SMILES notation. The source made the active and inactive calls.

Sequence of Alkaline phosphatase, placental type (P05187 whole entry): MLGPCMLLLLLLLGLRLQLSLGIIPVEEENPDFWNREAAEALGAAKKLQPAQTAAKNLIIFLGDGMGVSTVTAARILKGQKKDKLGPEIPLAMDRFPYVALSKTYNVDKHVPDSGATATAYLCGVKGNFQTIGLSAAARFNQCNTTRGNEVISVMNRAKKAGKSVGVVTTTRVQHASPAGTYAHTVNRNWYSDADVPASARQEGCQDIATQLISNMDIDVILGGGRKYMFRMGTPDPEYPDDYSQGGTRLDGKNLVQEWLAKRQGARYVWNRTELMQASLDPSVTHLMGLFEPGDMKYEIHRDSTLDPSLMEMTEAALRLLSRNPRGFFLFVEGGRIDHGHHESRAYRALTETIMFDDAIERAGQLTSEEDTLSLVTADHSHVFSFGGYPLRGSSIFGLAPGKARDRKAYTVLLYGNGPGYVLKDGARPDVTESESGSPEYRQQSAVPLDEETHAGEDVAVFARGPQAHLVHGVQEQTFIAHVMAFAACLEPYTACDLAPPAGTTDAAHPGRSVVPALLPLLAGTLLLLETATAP

Turning to `CC1(C)c2ccccc2N2CC(=O)NC21/C=C/c1ccco1` (configuration not stated), the IC50 in [1] was 50 µM (inactive); on Perilipin-1/ABHD5, 20.8 µM (inactive); in [2], 20.6 µM (inactive).
As for `Cn1ccnc1SCC(=O)c1ccc(O)c(O)c1`, the IC50 in test [3] is 8.56 µM (active); in test [4], 75.7 µM (active).
Consider `Cc1ccc(O)c(CNc2nc3ccccc3[nH]2)c1`, for which, in test [5], the EC50 was 1.5 µM (active).
`O=C(Nc1cccc(Cl)c1)c1cc(N=Nc2ccc([N+](=O)[O-])cc2Cl)ccc1O`: the IC50 was 1.34 µM (active) in test [6] and 22.1 µM (active) at Nonstructural protein 1.
As for `CCOC(=O)c1ccc(N=Nc2c(O)nc(O)c(C#N)c2C)cc1`, the IC50 in test [7] was > 50 µM (inactive); in test [8], 3.18 µM (active); in test [9], > 56.8 µM (not active).
`COc1ccc(NC(=O)Nc2ccc3nc(-c4ccco4)c(-c4ccco4)nc3c2)cc1`: the IC50 in test [10] was 12.2 µM (active).
On to `CCOc1cc2c3c(c1)C(C)=CC(C)(C)N3C(=O)C2=O`, for which the IC50 was 15.3 µM (inactive) at Perilipin-1/ABHD5 and 15 µM (inactive) in test [2].
As to `CCc1ccc(-c2nnn(CCC(=O)OC)n2)cc1`, the EC50 in the test with HT-1080 is > 50 µM (not active); in test [12] it was 5.58 µM (active). In addition, the IC50 in test [11] is > 80 µM (inactive). Besides, the AC50 in the test on HEK293 [13] was 16.2 µM (active).
As for `CCc1ccc2nc(N(CCCN(C)C)C(=O)c3ccc(S(=O)(=O)N4CCc5ccccc5C4)cc3)sc2c1`, the EC50 is > 92.5 µM (inactive) in test [14], > 92.5 µM (inactive) at Mu-type opioid receptor, > 92.5 µM (inactive) in test [17] and > 100 µM (inactive) in test [18]. Further, the IC50 in test [15] was 4.58 µM (active); in test [16], 80 µM (inactive); on Bcl-2-related protein A1, > 20 µM (inactive); in test [19], 4.49 µM (active).
As for `O=C(NCCN1CCOCC1)c1cc2sccc2n1Cc1ccc(F)cc1`, the results for the EC50 (in test [5]; in the test with HEK293 [20]; with HEK293 [21]) were 5.96 µM (active), > 59.7 µM (inactive) and > 59.7 µM (inactive), respectively.
With `Clc1ccccc1-c1nnc2c3cnn(-c4ccccc4)c3ncn12`, the IC50 in [22] was > 100 µM (not active); in test [3] it was > 100 µM (inactive); in test [4], > 100 µM (inactive).
